Measurements published in patent publication US12195482B1 (Arcus Biosciences, Inc., priority 2022, dated 2025).

Columns and labels:
[1] = target: T1, p-AXL (Homo sapiens, UniProt P30530); assay: Axl phosphorylation inhibition ELISA in HEK293T cells transfected with NanoLuc-tagged AXL; assay type: cell-based; conditions: 1 h compound incubation, media (OptiMEM)
T1 construct: expressed in transfected cells; host or cells: HEK293T
T1 sequence (P30530 26-894): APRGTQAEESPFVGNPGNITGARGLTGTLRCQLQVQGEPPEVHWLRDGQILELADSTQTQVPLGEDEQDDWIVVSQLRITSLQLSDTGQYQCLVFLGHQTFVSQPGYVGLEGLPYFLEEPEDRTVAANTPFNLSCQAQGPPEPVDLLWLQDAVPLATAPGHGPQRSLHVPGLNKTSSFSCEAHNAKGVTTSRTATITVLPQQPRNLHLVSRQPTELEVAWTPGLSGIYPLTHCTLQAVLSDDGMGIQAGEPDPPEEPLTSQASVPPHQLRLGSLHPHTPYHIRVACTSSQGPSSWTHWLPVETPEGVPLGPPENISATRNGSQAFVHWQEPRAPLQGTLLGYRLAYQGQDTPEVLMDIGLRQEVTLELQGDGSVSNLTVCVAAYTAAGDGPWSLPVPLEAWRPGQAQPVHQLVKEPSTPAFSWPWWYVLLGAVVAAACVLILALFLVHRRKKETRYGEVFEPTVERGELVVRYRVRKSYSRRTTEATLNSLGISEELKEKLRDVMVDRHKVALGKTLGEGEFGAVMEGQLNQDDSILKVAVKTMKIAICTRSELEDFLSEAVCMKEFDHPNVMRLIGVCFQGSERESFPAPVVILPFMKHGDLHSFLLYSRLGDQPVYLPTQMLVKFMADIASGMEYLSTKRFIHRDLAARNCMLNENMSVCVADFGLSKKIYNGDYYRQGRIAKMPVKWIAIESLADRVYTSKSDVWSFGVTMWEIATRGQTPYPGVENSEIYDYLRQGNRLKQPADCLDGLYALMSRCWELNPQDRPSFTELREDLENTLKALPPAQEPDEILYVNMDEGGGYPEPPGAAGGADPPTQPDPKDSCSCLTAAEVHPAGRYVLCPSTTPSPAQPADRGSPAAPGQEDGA
Method in brief: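 HEK293T cells transiently transfected one day earlier with NanoLuc-tagged AXL were exposed to 22-point 2-fold compound dilutions for 1 h at 37° C (70,000 cells/well), then lysed. Lysates captured on anti-phospho-tyrosine coated plates for 2 h; bound p-AXL read by NanoLuc luminescence; IC50 from 4-parameter logistic fit.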

[2] = target: T2, Axl (Homo sapiens, UniProt P30530); assay: Biochemical potency, HTRF KinEASE-TK kinase assay; parameters: purchased Invitrogen; conditions: 5 nM AXL, 700 μM ATP
T2 sequence (P30530 26-894): T1 sequence (P30530 26-894)
Method in brief: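 Enzyme (AXL 5 nM; TYRO3 or MER 1 nM final) was preincubated with compound for 1 h at RT, then reacted for 2 h at RT with 800 nM biotinylated TK substrate and 700 µM ATP in HEPES pH 7.4, MgCl2, DTT, BSA, 1% DMSO. Percent activity came from the HTRF 665/620 ratio.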

IC50 [1]	IC50 [2]	Compound
0.1 to 1 µM	< 0.1 µM	CCOc1cccnc1-c1ccc(-c2n[nH]c3ncc(-c4ccc5c(c4)CC[C@@H](N4C6COCC4C6)CC5)cc23)cc1 [Example 181, 6-[(7S)-2-{3-[4-(3-Ethoxypyridin-2-yl)phenyl]-1H-pyrazolo[3,4-b]pyridin-5-yl}-6,7,8,9-tetrahydro-5H-benzo[7]annulen-7-yl]-3-oxa-6-azabicyclo[3.1.1]heptane]
< 0.1 µM	< 0.1 µM	CCc1cccnc1-c1ccc(-c2n[nH]c3ncc(-c4ccc5c(c4)CC[C@@H](N4C6COCC4C6)CC5)cc23)cc1 [Example 182, 6-[(7S)-2-{3-[4-(3-Ethylpyridin-2-yl)phenyl]-1H-pyrazolo[3,4-b]pyridin-5-yl}-6,7,8,9-tetrahydro-5H-benzo[7]annulen-7-yl]-3-oxa-6-azabicyclo[3.1.1]heptane]
< 0.1 µM	< 0.1 µM	CCc1cccnc1-c1ccc(-c2c[nH]c3ncc(-c4ccc5c(c4)CC[C@@H](N4C6COCC4C6)CC5)cc23)cc1 [Example 183, 6-[(7S)-2-{3-[4-(3-Ethylpyridin-2-yl)phenyl]-1H-pyrrolo[2,3-b]pyridin-5-yl}-6,7,8,9-tetrahydro-5H-benzo[7]annulen-7-yl]-3-oxa-6-azabicyclo[3.1.1]heptane]
0.1 to 1 µM	< 0.1 µM	Cc1cccnc1-c1ccc(-c2c[nH]c3ncc(-c4ccc5c(c4)CC[C@@H](N[C@H]4CCCOC4)CC5)cc23)cc1 [Example 186, (3S)—N-[(7S)-2-{3-[4-(3-Methylpyridin-2-yl)phenyl]-1H-pyrrolo[2,3-b]pyridin-5-yl}-6,7,8,9-tetrahydro-5H-benzo[7]annulen-7-yl]oxan-3-amine]
< 0.1 µM	< 0.1 µM	Cc1cccnc1-c1ccc(-c2c[nH]c3ncc(-c4ccc5c(c4)CC[C@@H](N4C[C@@H]6C[C@H]4CO6)CC5)cc23)cc1 [Example 187, (4S)-5-[(7S)-2-{3-[4-(3-Methylpyridin-2-yl)phenyl]-1H-pyrrolo[2,3-b]pyridin-5-yl}-6,7,8,9-tetrahydro-5H-benzo[7]annulen-7-yl]-2-oxa-5-azabicyclo[2.2.1]heptane]
